The values below come from US11415493B2, “Detection of cells in a liquid sample” (DELTA INSTRUMENTS B.V., priority 2016, dated 2022).

In one test the test system is E. coli in raw milk. Put plainly: GelGreen raw milk treatment staining protocol, flow cytometry. In kind it is cell-based, Escherichia coli. The following applies: raw milk diluted in Tris-buffered saline pH 8.5, approximately 50 to 60° C. As for the experimental part:
To show how the FL1, FL2 signals look like in un-spiked raw milk, low bacterial count raw milk was analyzed. The locally obtained raw milk (generally from a farm) has a very low bacteria count ranging from 1000 to 50,000 CFU per mL. The staining composition comprising GelGreen™ as the nucleic acid dye was prepared in the same way as in Example 1, except that the protease Savinase® 16L (from Novozymes) was added in an amount of 1.92×10^3 NPU/ml, where NPU is “Novo Protease Unit which is the same as Anson unit (AU). […] The sample with the staining composition was incubated at approximately 50° C. for approximately 4 to 5 min; the sample was again sonicated for approximately 5 seconds and finally the sample was analyzed on the flow cytometer and the fluorescent signals from the bacteria were detected and a count per unit volume was determined.
A small volume of raw milk was processed and analyzed following this GelGreen™ raw milk treatment staining method protocol (FIG. 38). To show the FL1 and FL2 signals for spiked raw milk, a known number of E. coli were placed into a known volume of the same raw milk and kept at 4° C. until treated, stained and analyzed on the flow cytometer. The raw milk with E. coli was processed and analyzed using the same GelGreen™ raw milk treatment staining method protocol. […]
In general terms: Flow cytometry measures light scatter and fluorescence of single cells or particles in a stream.

Test [1] relates to bacteria in raw milk. Nature of the test: IBC in 24 h old raw bulk milk, staining composition with Savinase, flow cytometer. In kind it is cell-based. The following applies: 68° C., 1 minute. The method, then:
To verify this method with Savinase®, locally obtained raw bulk tank milk from a dairy plant was collected. […] An amount of 200 μl bacterial culture is added to a 45 ml volume of 24 h old raw bulk milk and kept at 4° C. until analyzed. The staining composition comprising GelGreenTM as the nucleic acid dye was prepared in the same way as in Example 5, except that the Alcalase® protease was replaced by 0.12 KNPU/ml Savinase® […] protease (from Novozymes). 200 μl of unheated raw milk is diluted with the 1800 μl staining composition and incubated at approximately 68° C. for 1 minute; the sample is sonicated for 5 seconds at 40 kHz in the before and after the incubation step and analyzed on the flow cytometer; the fluorescent signals from the bacteria were detected and a count per unit volume was determined. Traditional plate counts were used to obtain a bacterial reference count. As used herein, the term “traditional plate counts”, refers to Petrifilm Aerobic Count Plates (AOAC Official Method 986.33). The LOG of individual bacterial count (IBC)/ml from 24 h raw milk in the flow cytometer is 5.61, the LOG of CFU/ml petrifilm is 4.83. The LOG of IBC from 24 h raw milk spiked with E. coli LOG in the flow cytometer is 6.48. The LOG of CFU/ml petrifilm is 6.69.

The test system of another test is E. coli. Nature of the test: Validation of flow cytometer bacterial counts versus Petrifilm CFU counts, E. coli cultures. In kind it is cell-based, Escherichia coli. The settings on record: Tris-buffered saline pH 8.5, 50° C. The method, then: First, an experiment was performed to confirm that bacterial counts obtained on the flow cytometer using GelGreen™ did correlate with traditional plate counts. For this, the Petrifilm method was selected (Standard Methods for Examination of Dairy Products 17th Edition 2004. Edited by H. M. Wehr and J. R. Frank. American Public Health Association, 800 I Street, NW, Washington D.C. 200001. Chapter 6.040), rather than a poured agar plate method, because of ease of use. Escherichia coil (E. coli) cultures were grown at 36° C. in Trypticase Soy Broth (TSB) in a culture tube. A staining composition was prepared as follows: The nucleic acid dye GelGreen™ (from Biotium) was diluted to 1× from the 10,000× commercially available stock, into Tris-buffered saline (100 mM Trizma base, 100 mM Trizma HCl, 150 mM NaCl, pH 8.5), which was preheated to 50° C. […] The stained E. coli was analyzed on the flow cytometer and the FL1 (Bandpass 531 nm (519-551)) and FL2 (Long pass >550 nm) fluorescence channels were used to identify the stained bacteria (FIGS. 1A and 1C). […] Each dilution of E. coli was stained with the GelGreen™ reagent, analyzed on the flow cytometer and counts for each dilution were obtained. […] The Petrifilms were placed in a 30° C. incubator, removed after 48 hrs and the colonies on each Petrifilm were counted using an automated colony counter. […]

The subject of test [2] is Listeria monocytogenes, Staphylococcus aureus, Bacillus cereus, Pseudomonas aeruginosa, Escherichia coil. Put plainly: Validation of flow cytometry counts versus Petrifilm CFU in raw milk spiked with gram positive and gram negative bacteria. In kind it is cell-based. The following applies: raw milk with individual bacterial cultures. From the text: A selection of gram negative and gram positive bacteria were chosen to be placed into raw milk and processed and analyzed following the GelGreen™ raw milk treatment staining protocol as disclosed in example 2. The gram positive organisms selected were Listeria monocytogenes (Lm), Staphylococcus aureus (Sa), and Bacillus cereus (Bc). The gram negative organisms selected were Pseudomonas aeruginosa (Pa) and Escherichia coil (Ec). Different concentrations of each culture were placed into a sample of raw milk and kept at 4° C. until processed. Each sample of raw milk with an individual bacterial culture was processed and analyzed following the GelGreen™ protocol as described in example 2. Each sample of raw milk with an individual bacterial culture was appropriately diluted in Butterfield's PBS and 1 mL was plated on Petrifilms in duplicate and CFU/mL were obtained. The resulting Log FCM counts per mL were plotted against the Log Petrifilm CFU per mL.

Test [3] has as its system bacteria in raw milk. Nature of the test: IBC in raw milk samples at different pH settings, flow cytometer. In kind it is cell-based.

Structures are written as SMILES. “Also recorded” adds a separate entry of the source.

Consider `CN(C)c1ccc2cc3ccc(N(C)C)cc3[n+](CCCCCC(=O)NCCCOCCOCCOCCCNC(=O)CCCCC[n+]3c4cc(N(C)C)ccc4cc4ccc(N(C)C)cc43)c2c1.[I-].[I-]` [GelGreen™], for which, in the test with E. coli in raw milk, the “staining of bacterial cells in raw milk” value is recorded as “clear population of E. coli was identified; also recorded: bacterial cells being stained”. In the test with bacteria in raw milk [1] (24 h raw milk spiked with E. coli), the “LOG of IBC in the flow cytometer” value was found to be 6.48. Besides, in the test with bacteria in raw milk [1] (24 h raw milk), the “LOG of individual bacterial count (IBC)/ml in the flow cytometer” value stood at 5.61. For the same compound, in the test on E. coli, the “relationship of Log flow cytometer bacterial counts versus Log CFU counts from Petrifilm” value is on record as “clear linear relationship”. For the same compound, in test [2], the “relationship of Log FCM counts per mL versus Log Petrifilm CFU per mL” value was “overall linear relationship”. In addition, the “IBC higher compared to the reference method (pH 10.6)” value in the test with bacteria in raw milk [3] (pH 7.0, fresh milk) is “more than 1.5 million counts per ml”. Also, the “IBC compared to the reference method (pH 10.6)” value in the test with bacteria in raw milk [3] (pH 8.7) is “comparable with the reference method”.
